pIC50: −log10 of the molar value.

The test has as its system Plasmodium berghei. Briefly: Luciferase/luciferin-expressing antifolate-resistant parasites were used to infect a culture of HepG2 cells that were pre-incubated with compounds. Infected hepatocytes emit light due to the luciferase reaction. Assay results are presented as the percent inhibition of light emission compared to control. […]. The settings on record: sporozoite; for IC90: read-out: LUCIFERASE INFECTION ASSAY - IC90. Type of test: functional.

Consider `O=C(Nc1ccc(OC(F)(F)F)cc1)c1c(-c2ccccc2)nnc2ccccc12`, for which the IC90 is above 8.06 µM. Where the note is “FFLUC_HILL_SLOPE 2.82, FFLUC_R_SQUARED 0.654, HEPG2TOX_HILL_SLOPE 0.161, HEPG2TOX_R_SQUARED 0.349, PBLUC_HILL_SLOPE 0.343, PBLUC_R_SQUARED 0.11, read-out: LUCIFERASE INFECTION ASSAY - IC50”, the pIC50 is below 5.09.
As to `O=C(OC1(C(F)(F)F)C(=O)Nc2c1ccc1ccccc21)c1cccs1` (stereo not given), the IC90 was above 10 µM. Also, the pIC50 (FFLUC_HILL_SLOPE 2.8, FFLUC_R_SQUARED 0.511, PBLUC_HILL_SLOPE 11.1, PBLUC_R_SQUARED 0.378, read-out: LUCIFERASE INFECTION ASSAY - IC50) was 5.01.
In the case of `O=C(Nc1ccc(-n2cnc3ccccc32)nc1)c1ccc(S(=O)(=O)C(F)F)cc1`, the IC90 was above 10 µM. Also, the pIC50 (FFLUC_HILL_SLOPE 3, FFLUC_R_SQUARED 0.28, HEPG2TOX_HILL_SLOPE 9.7, HEPG2TOX_R_SQUARED 0.823, PBLUC_HILL_SLOPE 15.6, 20.0, PBLUC_R_SQUARED 0.113, 0.608, read-out: LUCIFERASE INFECTION ASSAY - IC50) was 5.04.
Consider `CN(C)c1ccc(C(c2ccc(N(C)C)cc2)c2ccc(N(C)C)c(C#N)c2F)cc1`, for which the IC90 is above 7.92 µM. Also, the pIC50 (FFLUC_HILL_SLOPE 2.97, FFLUC_R_SQUARED 0.397, HEPG2TOX_HILL_SLOPE 0.327, HEPG2TOX_R_SQUARED 0.744, PBLUC_HILL_SLOPE 0.914, PBLUC_R_SQUARED 0.465, read-out: LUCIFERASE INFECTION ASSAY - IC50) was 5.22.
Regarding `Cc1ccc(/N=c2\scc(-c3cccc(C(F)(F)F)c3)n2/N=C/c2ccc3ncccc3c2)c(C)c1`, the IC90 was above 10 µM. The pIC50 (FFLUC_HILL_SLOPE 2.84, FFLUC_R_SQUARED 0.529, read-out: LUCIFERASE INFECTION ASSAY - IC50) is below 5.00.
Consider `COc1ccc(-c2csc(NC(=O)c3ccc(Cl)c(S(=O)(=O)N4CCc5ccccc54)c3)n2)cc1OC`, for which the concentration for an effect of 90% (IC90) is above 10 µM. For the same molecule, where the note is “FFLUC_HILL_SLOPE 2.97, FFLUC_R_SQUARED 0.574, read-out: LUCIFERASE INFECTION ASSAY - IC50”, the pIC50 was below 5.00.
As for `CC(C)c1cc(C(C)C)c(S(=O)(=O)Nc2ccc(O)cc2)c(C(C)C)c1`, the IC90 amounted to 3.98 µM. In addition, for the setting “FFLUC_HILL_SLOPE 2.79, FFLUC_R_SQUARED 0.606, PBLUC_HILL_SLOPE 11.9, 14.6, PBLUC_R_SQUARED 0.380, 0.737, read-out: LUCIFERASE INFECTION ASSAY - IC50”, the pIC50 was 5.47.
Regarding `COc1ccccc1-n1c(SCC(=O)NNC(=O)c2ccc([N+](=O)[O-])cc2)nc2ccccc2c1=O`, the IC90 was above 10 µM. Also, the pIC50 (FFLUC_HILL_SLOPE 2.82, FFLUC_R_SQUARED 0.966, read-out: LUCIFERASE INFECTION ASSAY - IC50) is below 5.00.
Take `COC(CNC(=S)c1c(-c2ccc(Cl)cc2)c2c3n(c(-c4cccc(S(=O)(=O)N5CCOCC5)c4)nn13)CCCC2)OC`: the IC90 came to 0.453 µM. For the same molecule, the pIC50 (FFLUC_HILL_SLOPE 2.83, FFLUC_R_SQUARED 0.688, HEPG2TOX_HILL_SLOPE 16.1, HEPG2TOX_R_SQUARED 0.632, PBLUC_HILL_SLOPE 13, PBLUC_R_SQUARED 0.649, read-out: LUCIFERASE INFECTION ASSAY - IC50) is 6.42.
With `CC(C)(C)c1ccc(OC(=O)Nc2ccc(Cl)c(Cl)c2)c(C(C)(C)C)c1`, the IC90 was above 8.37 µM. Besides, the pIC50 (FFLUC_HILL_SLOPE 3, FFLUC_R_SQUARED 0.639, PBLUC_HILL_SLOPE 0.845, PBLUC_R_SQUARED 0.14, read-out: LUCIFERASE INFECTION ASSAY - IC50) is below 5.08.
For the molecule `O=[N+]([O-])c1cc(Cl)cc(/C=N/Nc2cc(C(F)(F)F)ccc2Cl)c1O`, the IC90 is above 10 µM. Under “FFLUC_HILL_SLOPE 3.01, FFLUC_R_SQUARED 0.379, HEPG2TOX_HILL_SLOPE 2.46, HEPG2TOX_R_SQUARED 0.824, read-out: LUCIFERASE INFECTION ASSAY - IC50”, the pIC50 was below 5.00.
As to `Cc1ccc(NC(=O)Nc2cnn(-c3ccc([N+](=O)[O-])cc3)c2C(F)(F)F)cc1F`, the IC90 turned out to be 3.46 µM. For the same molecule, the pIC50 (FFLUC_HILL_SLOPE 2.79, FFLUC_R_SQUARED 0.315, HEPG2TOX_HILL_SLOPE 0.0932, HEPG2TOX_R_SQUARED 0.068, PBLUC_HILL_SLOPE 11.4, PBLUC_R_SQUARED 0.0999, read-out: LUCIFERASE INFECTION ASSAY - IC50) was 5.55.
For the molecule `Cc1cc(C(=O)C(C)Sc2ncnc3sc(-c4ccccc4)cc23)c(C)n1-c1ccc(OC(F)F)cc1` (stereo not given), the IC90 is above 10 µM. The pIC50 (FFLUC_HILL_SLOPE 3.01, FFLUC_R_SQUARED 0.199, HEPG2TOX_HILL_SLOPE 3.15, HEPG2TOX_R_SQUARED 0.925, PBLUC_HILL_SLOPE 3.1, PBLUC_R_SQUARED 0.165, read-out: LUCIFERASE INFECTION ASSAY - IC50) is 5.15.
`c1ccc(-c2cc3c(Oc4cccc5ccccc45)ncnc3s2)cc1`: the 90% effect concentration (IC90) was above 10 µM. Moreover, the pIC50 (FFLUC_HILL_SLOPE 2.93, FFLUC_R_SQUARED 0.065, PBLUC_HILL_SLOPE 1.19, PBLUC_R_SQUARED 0.417, read-out: LUCIFERASE INFECTION ASSAY - IC50) is 5.55.
Take `Cc1ccc(NC(=O)NC(=O)CSc2nccn2Cc2ccccc2)c(C)c1`: the IC90 is above 10 µM. Moreover, the pIC50 (FFLUC_HILL_SLOPE 2.79, FFLUC_R_SQUARED 0.544, read-out: LUCIFERASE INFECTION ASSAY - IC50) is below 5.00.
With `CCOC(=O)c1c(C)noc1/C(C)=N/Nc1cc(C(F)(F)F)cc(C(F)(F)F)c1`, the IC90 is above 7.8 µM. In addition, the pIC50 (FFLUC_HILL_SLOPE 2.91, FFLUC_R_SQUARED 0.779, PBLUC_HILL_SLOPE 12.4, PBLUC_R_SQUARED 0.288, read-out: LUCIFERASE INFECTION ASSAY - IC50) was below 5.11.
Consider `CC(=O)NCCCc1ccc(C(=O)COC(=O)c2cc(Cl)c[nH]2)cc1`, for which the IC90 was above 10 µM. For the same molecule, under “FFLUC_HILL_SLOPE 2.83, FFLUC_R_SQUARED 0.674, read-out: LUCIFERASE INFECTION ASSAY - IC50”, the pIC50 was below 5.00.
On to `C/C(=N\NC(=S)NC(C)(C)C)c1cc(F)cc(Cl)c1O`, for which the IC90 was 4.66 µM. Besides, the pIC50 (FFLUC_HILL_SLOPE 2.86, FFLUC_R_SQUARED 0.466, HEPG2TOX_HILL_SLOPE 2.1, HEPG2TOX_R_SQUARED 0.731, PBLUC_HILL_SLOPE 9.8, PBLUC_R_SQUARED 0.522, read-out: LUCIFERASE INFECTION ASSAY - IC50) is 5.43.
As to `Cc1ccc(-c2nn(-c3ccccc3)cc2/C=N/Nc2ncnc(N)c2[N+](=O)[O-])o1`, the IC90 came out at 1.28 µM. Besides, the pIC50 (FFLUC_HILL_SLOPE 2.88, FFLUC_R_SQUARED 0.103, HEPG2TOX_HILL_SLOPE 0.791, HEPG2TOX_R_SQUARED 0.887, PBLUC_HILL_SLOPE 4.72, PBLUC_R_SQUARED 0.877, read-out: LUCIFERASE INFECTION ASSAY - IC50) was 6.09.
`CCOC(=O)c1c(N2C(=O)C=CC2=O)sc2c1CCCC2`: the IC90 was above 10.8 µM. In addition, the pIC50 (FFLUC_HILL_SLOPE 2.83, FFLUC_R_SQUARED 0.0392, read-out: LUCIFERASE INFECTION ASSAY - IC50) is below 4.97.
Consider `CC(=O)Nc1ccc(Sc2ccnc3cc(Cl)ccc23)cc1`, for which the IC90 was 3.98 µM. For the same molecule, the pIC50 (FFLUC_HILL_SLOPE 2.92, FFLUC_R_SQUARED 0.4, PBLUC_HILL_SLOPE 11.7, PBLUC_R_SQUARED 0.574, read-out: LUCIFERASE INFECTION ASSAY - IC50) was 5.48.
In the case of `Cc1ccc(-n2c(SCC(=O)N3c4ccc(S(N)(=O)=O)cc4CC3C)nc3ccccc32)cc1` (stereo not given), the IC90 is above 10 µM. Further, the pIC50 (FFLUC_HILL_SLOPE 2.97, FFLUC_R_SQUARED 0.377, PBLUC_HILL_SLOPE 1.55, PBLUC_R_SQUARED 0.53, read-out: LUCIFERASE INFECTION ASSAY - IC50) was 5.27.
For the molecule `Cc1c(Cl)cnc(NC(=O)CSc2nnc(-c3ccccc3)o2)c1Cl`, the 90% effect concentration (IC90) worked out at 2.88 µM. Also, the pIC50 (FFLUC_HILL_SLOPE 2.78, FFLUC_R_SQUARED 0.409, HEPG2TOX_HILL_SLOPE 3.93, HEPG2TOX_R_SQUARED 0.284, PBLUC_HILL_SLOPE 2.91, PBLUC_R_SQUARED 0.621, read-out: LUCIFERASE INFECTION ASSAY - IC50) was 5.87.
`Cc1cccc(C)c1-n1c(=C(C#N)C#N)s/c(=C/c2ccc(Cl)c([N+](=O)[O-])c2)c1=O`: the IC90 is 9.8 µM. The pIC50 (FFLUC_HILL_SLOPE 2.98, FFLUC_R_SQUARED 0.465, HEPG2TOX_HILL_SLOPE 7.11, HEPG2TOX_R_SQUARED 0.701, PBLUC_HILL_SLOPE 34, PBLUC_R_SQUARED 0.394, read-out: LUCIFERASE INFECTION ASSAY - IC50) is 5.04.
On to `Nc1c(C(=O)N2CCOCC2)sc2nc3c(cc12)CCCCC3`, for which the concentration for an effect of 90% (IC90) was found to be 0.424 µM. In addition, under “FFLUC_HILL_SLOPE 2.88, FFLUC_R_SQUARED 0.736, PBLUC_HILL_SLOPE 1.46, PBLUC_R_SQUARED 0.898, read-out: LUCIFERASE INFECTION ASSAY - IC50”, the pIC50 is 7.03.

The values above are taken from ChEMBL document CHEMBL4483862, “Open-source discovery of chemical leads for next-generation chemoprotective antimalarials” (2018).
